Results from article PMC6300282, “Sulphamethazine derivatives as immunomodulating agents: New therapeutic strategies for inflammatory diseases” (PLoS ONE, 2018).

What was measured:
[1] = tested on: zymosan activated whole blood phagocytes; assay: Oxidative burst assay (luminol-enhanced chemiluminescence), whole blood; assay type: cell-based; conditions: human whole blood, serum opsonized zymosan, three doses 1, 10, 100 μg/mL, mean ± SD of three, NA = Not active, read-out: Oxidative Burst Inhibition (IC50) WB
Procedure: (§1) Luminol-enhanced chemiluminescence assay was performed, as described by Helfandet al., 1982 [17], with some modifications. Briefly 25 μL of diluted whole blood in HBSS^++ (Hanks Balanced Salt Solution, containing calcium chloride and magnesium chloride) [Sigma, St. Louis, USA] was incubated with 25 μL of three different concentrations of compounds (1, 10, and 100 μg/mL), each in triplicate. Control wells received HBSS^++ and cells, but no compounds. Test was performed in white half area 96-well plates [Costar, NY, USA], which was incubated at 37 °C for 15 minutes in the thermostat chamber of luminometer [Labsystems, Helsinki, Finland]. After incubation, 25 μL of serum opsonized zymosan (SOZ) [Fluka, Buchs, Switzerland] and 25 μL of intracellular reactive oxygen species detecting probe, luminol [Research Organics, Cleveland, OH, USA] were added into each well, except blank wells (containing only HBSS^++). The level of the ROS was recorded in luminometer in term of relative light units (RLU).

[2] = tested on: isolated polymorphonuclear neutrophils (PMNs); assay: Oxidative burst assay (luminol-enhanced chemiluminescence), isolated PMNs; assay type: cell-based; conditions: Polymorphonuclear neutrophil, isolated human PMNs, zymosan, three doses 1, 10, 100 μg/mL, mean ± SD of three, read-out: Oxidative Burst Inhibition (IC50) PMNs
Description: Heparinized blood was obtained by vein puncture aseptically from healthy volunteers. The PMNs were isolated by ficoll-Hypaque density gradient method. The cells were isolated after centrifugation from the tube base. Cells were washed twice and suspended in Hank’s Balance salt solution (HBSS^--) (Ca^2+ and Mg^2+ free), RBCs were lysed using hypotonic solution. Cells were adjusted to their required concentration (1x10^6 cells/mL) using HBSS^++containing Ca^2+ and Mg^2+.
as §1

[3] = tested on: nitric oxide (NO) production from LPS activated J774.2 mouse macrophages; assay: Nitric oxide production (Griess), LPS activated macrophages; assay type: cell-based; conditions: J774.2 cells, 30 μg/mL LPS, three doses 1, 10, 100 μg/mL, mean ± SD of three, read-out: NO Inhibition (IC50)
Procedure: The mouse macrophage cell line J774.2 (European Collection of Cell Cultures, UK) was cultured in 75 cc flasks IWAKI (Asahi Techno Glass, Japan) in DMEM Sigma-Aldrich (Steinheim, Germany) supplemented with 10% fetal bovine serum GIBCO (New York, USA)1% streptomycin/penicillin. Flasks were kept at 37 °C in atmosphere of humidified air containing 5% CO2, cells were seeded in 96-well plate (10^6 cells/mL) and were induced by 30 μg/mL e. coli lipopolysaccharide (LPS) (DIFCO Laboratories michigon, USA). The test compounds were added at concentrations of (1, 10 and 100 μg/mL) and plate was incubated at 37 °C in 5% CO2. Nitrite accumulation in culture supernatant was measured using the Griess reagents as described previously.

[4] = tested on: TNF-α production from THP-1 human monocytic leukemia cell line; assay: TNF-α production (ELISA), LPS stimulated THP-1 cells; assay type: cell-based; conditions: PMA-differentiated THP-1 cells, 50 ng/mL LPS, 4 hours; three doses 1, 10, 100 μg/mL; mean ± SD of three
Description: RPMI-1640 (R8758, Sigma Aldrich, St. Louis, USA); L-glutamine (25030081, Gibco, California, USA); D-glucose (G8270, Sigma Aldrich, St. Louis, USA); 2-mercaptoethanol (190242, MP Biomedicals, lllkirch, France); sodium pyruvate (11360–070, Gibco, California, USA); FBS (A11-104, PAA Laboratories, Pasching, Austria); HEPES (H3375, Sigma Aldrich, St. Louis, USA); PMA (151864, MP Biomedicals, lllkirch, France); lipopolysaccharide B of E. coli 0111:B4 (LPS) (3922–25, DIFCO Laboratories, USA); 24-well tissue culture plates (CLS3524, Corning, Dublin, USA); Flat bottom 96-well tissue culture plates (CLS3300, Corning, New York, USA). BSA (151429, MP Biomedicals, lllkirch, France); PBS tablets (41620016–4, Bioworld, Dublin, Ireland); Tween 20 (822184, Merck, Damstadt, Germany); Human TNF-α DuoSet ELISA Kit (DY210, R&D Systems, Minneapolis, USA); Human IL-1β DuoSet ELISA Kit (DY201, R&D Systems, Minneapolis, USA); and Human IL-2 DuoSet ELISA Kit (DY202, R&D Systems, Minneapolis, USA); ELISA plate sealers (DY992, R&D Systems, Minneapolis, USA); Clear flat bottom 96-well microplates (DY990, R&D Systems, Minneapolis, USA). Human monocytic leukemia cells THP-1 were obtained from (European Collection of Cell Cultures, UK). The cells were maintained in RPMI-1640 containing 5.5 mmol/L glucose (BioM Laboratories, Chemical Division, Malaysia), 50 μmol/L mercaptoethanol (Merck Damstadt, Germany), 10% FBS (fetal bovine serum), 2 mmol/L; L-glutamine (PAA Laboratories, GmbH, Pasching, Austria). Cells were grown in 75 cc flasks, harvested and 2.5×10^5 cells/mL was then plated in 24-well tissue culture plates. 20 ng/mL of phorbol-12-myristate-13-acetate (PMA), (SERVA, Heidelberg, Germany) was added followed by incubation for 24 hours at 37 °C in 5% CO2to convert them into macrophage like cell. Cells were then stimulated with E. coli lipopolysacchride B, (DIFCO Laboratories, michigon, USA) at a final concentration of 50 ng/mL and treated with compounds at three different concentration (1, 10 and 100 μg/mL) and then incubated for 4 hours at 37 °C in 5% CO2. The supernatants collected were analyzed for the level of TNF -α using the human TNF-α Duo Set ELISA (R&D Systems, Minneapolis, USA), and according to manufacturer’s instructions.

[5] = tested on: Bacillus subtilis (ATCC 6633); assay: Microplate Alamar Blue Assay, Bacillus subtilis; assay type: cell-based; conditions: ATCC6633, 200 μg/mL, NI = No inhibition, read-out: Percentage (%) Inhibition, Bacillus subtilis
Procedure: (§2) The anti-bacterial activity of synthesized compound were evaluated by the Microplate Alamar Blue Assay. Staphylococcus aureus (ATCC 25923), Pseudomonas aeruginosa(POA 286), Salmonella typhi (ATCC 14028), Bacillus subtilis ATCC 6633) and Escherichia coli (ATCC 12022) were used in this study as a standard bacterial strains and they were obtained from microbial bank of PCMD, International Center for Chemical and Biological Sciences, University of Karachi, Karachi-75270, Pakistan. The bacterial colonies grown in Trypton Soya Agar (TSA) (Oxoid Limited, UK) were inoculated in Mueller Hinton Broth (MHB) (Oxoid Limited, UK) and incubated overnight at 37 °C. Fully grown bacterial cultures were then diluted to adjust with 0.5 McFarland Turbidity Index (equivalent to 1.5 × 10^8 CFU/mL). Stock solutions (4 mg/mL) of different test compounds were prepared in DMSO and 10μL each of these stock solutions were placed in well of flat bottom, polystyrene, sterile 96-wells plate except the positive control wells (media + bacteria). This gives 200μg/mL concentrations of compounds in final 200 μL solution. Each compound was run in triplicates. Finally, bacterial suspension (5 x 10^6 CFU/mL) was added in each well. Plates were sealed by parafilm and incubated at 37 °C for 18–22 hrs. Next day, 20 μL of 0.02% resazurin sodium salt dye (Chem-Impex-Int’LInc) was added in each well and incubated in shaking incubator at 80 rpm, 37 °C for 2–3 hrs. The color change from blue to reddish pink indicates the growth of bacteria. For quantitative analysis, plates were read at 570 nm and 600 nm in Multiskan GOmicroplate spectrophotometer, (Thermo Scientific, USA). The % inhibition of bacterial growth was calculated using below mentioned formula.
(§3) For the calculation of the % difference in reduction between treated and control cells in cytotoxicity/proliferation assays: =(εOX)λ2Aλ1-(εOX)λ1Aλ2oftestagent/(εOX)λ2A°λ1-(εOX)λ1A°λ2ofpositivegrowthcontrol×100

[6] = tested on: Salmonella typhi (ATCC 14028); assay: Microplate Alamar Blue Assay, Salmonella typhi; assay type: cell-based; conditions: 200 μg/mL, NI = No inhibition; for inhibition at 200 µg/mL: Salmonella enterica, read-out: Percentage (%) Inhibition, Slamonella typhi
Procedure: as §2, §3

MTT cytotoxicity assay = assay type: cell-based, mouse; conditions: mouse; MTT, 48 hours; read-out: Cytotoxicity NIH-3T3 cell line (IC50)
Procedure: (§4) The cytotoxicity was recorded as concentration causing 50% growth inhibition (IC50).

[7] = tested on: Pseudomonas aeruginosa (POA 286); assay: Microplate Alamar Blue Assay, Pseudomonas aeruginosa; assay type: cell-based; conditions: 200 μg/mL, NI = No inhibition; for inhibition at 200 µg/mL: Pseudomonas aeruginosa, read-out: Percentage (%) Inhibition, Pseudomonas aerugenosa
Procedure: as §2, §3

[8] = tested on: Staphylococcus aureus (ATCC 25923); assay: Microplate Alamar Blue Assay, Staphylococcus aureus; assay type: cell-based; conditions: 200 μg/mL, NI = No inhibition; for inhibition at 200 µg/mL: Staphylococcus aureus, ATCC25923, read-out: Percentage (%) Inhibition, Staphylococcus aureus
Procedure: as §2, §3

[9] = tested on: Escherichia coli (ATCC 12022); assay: Microplate Alamar Blue Assay, Escherichia coli; assay type: cell-based; conditions: ATCC12022, 200 μg/mL, NI = No inhibition, read-out: Percentage (%) Inhibition, Escherichia coli
Procedure: as §2, §3

[10] = tested on: mouse fibroblast NIH-3T3 cell line; assay: MTT cytotoxicity assay; assay type: cell-based; conditions: MTT, 48 hours
Procedure: as §4

Structure (SMILES) | inhibition at 200 µg/mL [5] | inhibition at 200 µg/mL [6] | IC50 (MTT cytotoxicity assay) | inhibition at 200 µg/mL [7] | inhibition at 200 µg/mL [8] | inhibition at 200 µg/mL [9] | other results
CC(C)Cc1ccc(C(C)C(=O)O)cc1 (centres unmarked) [40 (Ibuprofen), Ibuprofen, reference compound] | – | – | – | – | – | – | IC50 [1]: 11.2 ± 1.9 µg/mL; IC50 [2]: 2.5 ± 0.6 µg/mL
[H]/N=C(/NC)NCCC[C@H](N)C(=O)O [41 (L-NMMA), NG monomethyl L-arginine acetate, reference compound] | – | – | – | – | – | – | IC50 [3]: 24.2 ± 0.6 µg/mL
CC(=O)CCCCn1c(=O)c2c(ncn2C)n(C)c1=O [42 (Pentoxifillin), Pentoxifillin, reference compound] | – | – | – | – | – | – | TNF-α Inhibition (IC50) [4]: 94.8 ± 2.1 µg/mL
Cc1cc(C)nc(NS(=O)(=O)c2ccc(NC(=O)C34CCC(C)(C(=O)O3)C4(C)C)cc2)n1 (centres unmarked) [Compound 15, N-(4-(N-(4,6-dimethylpyrimidin-2-yl)sulfamoyl)phenyl)-4,7,7-trimethyl-3-oxo-2-oxabicyclo[2.2.1]heptane-1-carboxamide] | 38.4% | 29.3% | > 30 µM | 29.4% | 14.1% | < 0% | melting point: 254 to 256 °C
Cc1cc(C)nc(NS(=O)(=O)c2ccc(NC(=O)c3cccc(C(F)(F)F)c3)cc2)n1 [Compound 20] | – | – | – | – | – | – | Percentage (%) Inhibition, Slamonella typhi [6]: 9.30%; IC50 [10]: > 30 µM; Percentage (%) Inhibition, Pseudomonas aerugenosa [7]: 1.66%; Percentage (%) Inhibition, Staphylococcus aureus [8]: 30.78%
Cc1cc(C)nc(NS(=O)(=O)c2ccc(NC(=O)c3ccc(Cl)cc3Cl)cc2)n1 [Compound 24, 2,4-dichloro-N-(4-(N-(4,6-dimethylpyrimidin-2-yl)sulfamoyl)phenyl)benzamide] | < 0% | 18.4% | > 30 µM | < 0% | 48.4% | 7.45% | melting point: 233 to 236 °C
Cc1cc(C)nc(NS(=O)(=O)c2ccc(NC(=O)c3ccccc3C)cc2)n1 [Compound 35, N-(4-(N-(4,6-dimethylpyrimidin-2-yl)sulfamoyl)phenyl)-2-methylbenzamide] | < 0% | 0.2% | > 30 µM | 16.5% | < 0% | < 0% | –
Cc1cccc(C(=O)Nc2ccc(S(=O)(=O)Nc3nc(C)cc(C)n3)cc2)c1 [Compound 36, N-(4-(N-(4,6-dimethylpyrimidin-2-yl)sulfamoyl)phenyl)-3-methylbenzamide] | < 0% | < 0% | > 30 µM | 20.5% | < 0% | < 0% | –
Cc1cc(C)nc(NS(=O)(=O)c2ccc(NC(=O)CCc3ccccc3)cc2)n1 [Compound 37, N-(4-(N-(4,6-dimethylpyrimidin-2-yl)sulfamoyl)phenyl)-3-phenylpropanamide] | < 0% | < 0% | > 30 µM | < 0% | 10.2% | < 0% | –
Cc1cc(C)cc(C(=O)Nc2ccc(S(=O)(=O)Nc3nc(C)cc(C)n3)cc2)c1 [Compound 38, N-(4-(N-(4,6-dimethylpyrimidin-2-yl)sulfamoyl)phenyl)-3,5-dimethylbenzamide] | < 0% | < 0% | > 30 µM | 19% | < 0% | < 0% | melting point: 216 to 218 °C
Cc1cc(C)nc(NS(=O)(=O)c2ccc(NC(=O)c3ccccc3)cc2)n1 [Compound 39, N-(4-(N-(4,6-dimethylpyrimidin-2-yl)sulfamoyl)phenyl)benzamide] | < 0% | 12.5% | > 30 µM | < 0% | 41.1% | 1.84% | –
